Measurements from ChEMBL document CHEMBL1201862, “PubChem BioAssay data set” (2004).
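Method: 48-hour compound exposure of cells in 96-well plates, five concentrations, linear interpolation of endpoints. GI50 marks 50% less growth.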 Activity calls are given as the source filed them. Cut-off read from the data, not from the text of the source: active = GI50 up to about 1.1 µM and inactive = higher.

How the values were obtained:
Experiment in all cases: DTP human tumour cell line panel, 48 h
CCRF-CEM = system: CCRF-CEM
SK-MEL-5 = system: SK-MEL-5
SK-MEL-28 = system: SK-MEL-28
HCC 2998 = system: HCC 2998
SW-620 = system: SW-620
TK-10 = system: TK-10
DMS-114 = system: DMS-114
SNB-75 = system: SNB-75
LXFL 529 = system: LXFL 529
UO-31 = system: UO-31
K562 = system: K562
ACHN = system: ACHN
NCI-H23 = system: NCI-H23
RPMI-8226 = system: RPMI-8226
NCI-H226 = system: NCI-H226
EKVX = system: EKVX
OVCAR-4 = system: OVCAR-4

| SMILES | GI50 (CCRF-CEM) | GI50 (SK-MEL-5) | GI50 (SK-MEL-28) | GI50 (HCC 2998) | GI50 (SW-620) | GI50 (TK-10) | GI50 (DMS-114) | GI50 (SNB-75) | GI50 (LXFL 529) | GI50 (UO-31) | GI50 (K562) | GI50 (ACHN) | GI50 (NCI-H23) | GI50 (RPMI-8226) | GI50 (NCI-H226) | GI50 (EKVX) | GI50 (OVCAR-4) |
| --- | --- | --- | --- | --- | --- | --- | --- | --- | --- | --- | --- | --- | --- | --- | --- | --- | --- |
| COc1c(C)cc2c(c1O)C1C3[C@H]4SC[C@@]5(NCCC6=C5NC5C=CC=CC65)C(=O)OCC(c5c6c(c(C)c(OC(C)=O)c54)OCO6)N3[C@@H](O)C(C2)N1C (some centres not stated) | < 0.01 µM (active) | < 0.01 µM (active) | 0.0134 µM (active) | < 0.01 µM (active) | < 0.01 µM (active) | < 0.01 µM (active) | < 0.01 µM (active) | < 0.01 µM (active) | < 0.01 µM (active) | < 0.01 µM (active) | < 0.01 µM (active) | < 0.01 µM (active) | < 0.01 µM (active) | < 0.01 µM (active) | 0.0112 µM (active) | 0.0297 µM (active) |  |
| NC(CSSCC(N)Cc1ccccc1)Cc1ccccc1 (configuration not stated) | 32.9 µM (inactive) | 24 µM (inactive) | 43.4 µM (inactive) | > 100 µM (inactive) | 31.6 µM (inactive) | > 100 µM (inactive) | 39.2 µM (inactive) | > 10 µM (inactive) | 36.1 µM (inactive) | > 100 µM (inactive) | 33.4 µM (inactive) | 76.4 µM (inactive) | 44.4 µM (inactive) | 35.3 µM (inactive) |  | 47.5 µM (inactive) | 70.8 µM (inactive) |
| NC1=NS(=O)(=O)Nc2nc(-c3ccc([N+](=O)[O-])cc3)[nH]c21 | > 100 µM (inactive) | > 100 µM (inactive) | > 100 µM (inactive) | > 100 µM (inactive) | > 100 µM (inactive) | > 100 µM (inactive) | > 100 µM (inactive) | > 100 µM (inactive) | > 100 µM (inactive) | > 100 µM (inactive) | > 100 µM (inactive) | > 100 µM (inactive) | > 100 µM (inactive) | > 100 µM (inactive) |  |  | > 100 µM (inactive) |
| COC(=O)C1C2C=CC(C2)C1(C(=O)OC)[S+]([O-])CC12CCC(CC1O)C2(C)C (configuration not stated) | > 100 µM (inactive) | > 100 µM (inactive) | > 100 µM (inactive) | > 100 µM (inactive) | 16 µM (inactive) | > 100 µM (inactive) | 85.7 µM (inactive) | > 100 µM (inactive) | > 100 µM (inactive) | > 100 µM (inactive) | 39.4 µM (inactive) | > 100 µM (inactive) | > 100 µM (inactive) | 70.1 µM (inactive) | > 100 µM (inactive) | > 100 µM (inactive) | > 100 µM (inactive) |
| N#CC1CCCCOCCOCCOCCOCCOCCCCCC1=O (configuration not stated) | > 100 µM (inactive) | > 100 µM (inactive) | > 100 µM (inactive) | > 100 µM (inactive) | > 100 µM (inactive) | > 100 µM (inactive) | > 100 µM (inactive) | > 100 µM (inactive) | > 100 µM (inactive) | > 100 µM (inactive) | > 100 µM (inactive) | > 100 µM (inactive) | > 100 µM (inactive) | > 100 µM (inactive) | > 100 µM (inactive) | > 100 µM (inactive) | > 100 µM (inactive) |
| CCCCCCC(=O)OC[n+]1ccc2c(C)c3[nH]c4ccccc4c3c(C)c2c1 |  | 1.56 µM (inactive) | 1.56 µM (inactive) | 0.826 µM (active) | 0.31 µM (active) | 3.13 µM (inactive) | 1.08 µM (active) | 1.85 µM (inactive) | 0.785 µM (active) | 3.42 µM (inactive) |  | 0.703 µM (active) | 0.455 µM (active) | 0.0785 µM (active) | 1.46 µM (inactive) | 0.403 µM (active) | 1.06 µM (active) |
| COC(=O)/C(C#N)=C1\CCC(Nc2cccc(C(F)(F)F)c2)N1C (configuration not stated) | > 100 µM (inactive) |  | > 100 µM (inactive) | > 100 µM (inactive) | > 100 µM (inactive) | > 100 µM (inactive) | > 10 µM (inactive) | 43.3 µM (inactive) | 74 µM (inactive) | 63.1 µM (inactive) | 45.8 µM (inactive) | 61.8 µM (inactive) | 72.1 µM (inactive) | > 100 µM (inactive) | > 100 µM (inactive) | > 100 µM (inactive) | > 100 µM (inactive) |
| CN1CN(C2OC(CO)C(O)C2O)c2nc(N)[nH]c(=O)c21 (configuration not stated) |  | > 100 µM (inactive) |  | > 100 µM (inactive) | > 100 µM (inactive) | > 100 µM (inactive) | > 100 µM (inactive) | > 100 µM (inactive) | > 100 µM (inactive) | > 100 µM (inactive) | > 100 µM (inactive) | > 100 µM (inactive) | > 100 µM (inactive) | > 100 µM (inactive) | > 100 µM (inactive) | > 100 µM (inactive) | > 100 µM (inactive) |
